ChEMBL document CHEMBL1144820, “Bipinnatins K-Q, minor cembrane-type diterpenes from the West Indian Gorgonian Pseudopterogorgia kallos: isolation, structure assignment, and evaluation of biological activities” (J Nat Prod, 2008)

Tests used:
Plasmodium falciparum = assay: Antimicrobial activity against chloroquine-resistant Plasmodium falciparum; assay type: functional, organism-based
SR = assay: Cytotoxicity against human SR cells; assay type: functional
RPMI-8226 = assay: Cytotoxicity against human RPMI8226 cells; assay type: functional
CCRF-CEM = assay: Cytotoxicity against human CCRF-CEM cells; assay type: functional
MOLT-4 = assay: Cytotoxicity against human MOLT4 cells; assay type: functional
[1] = system: Mycobacterium tuberculosis; assay: Antimicrobial activity against Mycobacterium tuberculosis H37Rv at 128 ug/ml; assay type: functional
[2] = Inhibition of Aplysia californica nicotinic acetylcholine receptor

## C=C(C)[C@@H]1CCC2=C[C@H](C[C@@]3(C)O[C@@H]3[C@]3(O)C=C(C)C(=O)[C@H]1O3)OC2=O [BIPINNATIN N]
Plasmodium falciparum
  IC50: > 10 µg/mL

## C=C(C=O)[C@H]1CC(=O)[C@@H](C(=O)OC)[C@@H]2O[C@@](C)(CC2=O)C[C@@H]2OC(=O)[C@]3(O[C@@H]23)[C@@H](OC(C)=O)C1 [BIPINNATIN Q]
SR
  GI50: 2.6 µM
RPMI-8226
  GI50: 4.1 µM
CCRF-CEM
  GI50: 5.8 µM
MOLT-4
  GI50: 4.2 µM
Plasmodium falciparum
  IC50: > 10 µg/mL

## C=C(C(=O)OC)[C@@H]1C[C@@H](OC(C)=O)C2=C[C@H](C[C@@]3(C)O[C@@H]3[C@@]3(O)C=C(C)[C@](O)(O3)[C@H]1OC(C)=O)OC2=O [BIPINNATIN M]
[1]
  inhibition at 128 µg/mL: 20%
Plasmodium falciparum
  IC50: > 10 µg/mL

## C=C(C=O)[C@H]1CC2=C(C(=O)OC)C=C(O2)[C@H]2O[C@]2(C)C[C@@H]2OC(=O)[C@]3(O[C@@H]23)[C@H](OC(C)=O)C1 [BIPINNATIN E]
[2]
  IC50: 0.23 µM
